In ChEMBL document CHEMBL5728485, “Biaryloxy derivatives as TTX-S blockers” (2021):

Molecular target: Sodium channel protein type 9 subunit alpha (Homo sapiens, UniProt Q15858)
Experiment: EFS-FRET Assay: This screen is used to determine the effects of compounds on human Nav1.7 channels, utilizing electrical field stimulation (EFS) system in 96-well plate format on FDSS (Hamamatsu Photonics) platform. The changes of membrane potential are monitored with FRET dye pair, DiSBAC2(3) and PTS 18.

Chain of Sodium channel protein type 9 subunit alpha (Q15858 whole entry): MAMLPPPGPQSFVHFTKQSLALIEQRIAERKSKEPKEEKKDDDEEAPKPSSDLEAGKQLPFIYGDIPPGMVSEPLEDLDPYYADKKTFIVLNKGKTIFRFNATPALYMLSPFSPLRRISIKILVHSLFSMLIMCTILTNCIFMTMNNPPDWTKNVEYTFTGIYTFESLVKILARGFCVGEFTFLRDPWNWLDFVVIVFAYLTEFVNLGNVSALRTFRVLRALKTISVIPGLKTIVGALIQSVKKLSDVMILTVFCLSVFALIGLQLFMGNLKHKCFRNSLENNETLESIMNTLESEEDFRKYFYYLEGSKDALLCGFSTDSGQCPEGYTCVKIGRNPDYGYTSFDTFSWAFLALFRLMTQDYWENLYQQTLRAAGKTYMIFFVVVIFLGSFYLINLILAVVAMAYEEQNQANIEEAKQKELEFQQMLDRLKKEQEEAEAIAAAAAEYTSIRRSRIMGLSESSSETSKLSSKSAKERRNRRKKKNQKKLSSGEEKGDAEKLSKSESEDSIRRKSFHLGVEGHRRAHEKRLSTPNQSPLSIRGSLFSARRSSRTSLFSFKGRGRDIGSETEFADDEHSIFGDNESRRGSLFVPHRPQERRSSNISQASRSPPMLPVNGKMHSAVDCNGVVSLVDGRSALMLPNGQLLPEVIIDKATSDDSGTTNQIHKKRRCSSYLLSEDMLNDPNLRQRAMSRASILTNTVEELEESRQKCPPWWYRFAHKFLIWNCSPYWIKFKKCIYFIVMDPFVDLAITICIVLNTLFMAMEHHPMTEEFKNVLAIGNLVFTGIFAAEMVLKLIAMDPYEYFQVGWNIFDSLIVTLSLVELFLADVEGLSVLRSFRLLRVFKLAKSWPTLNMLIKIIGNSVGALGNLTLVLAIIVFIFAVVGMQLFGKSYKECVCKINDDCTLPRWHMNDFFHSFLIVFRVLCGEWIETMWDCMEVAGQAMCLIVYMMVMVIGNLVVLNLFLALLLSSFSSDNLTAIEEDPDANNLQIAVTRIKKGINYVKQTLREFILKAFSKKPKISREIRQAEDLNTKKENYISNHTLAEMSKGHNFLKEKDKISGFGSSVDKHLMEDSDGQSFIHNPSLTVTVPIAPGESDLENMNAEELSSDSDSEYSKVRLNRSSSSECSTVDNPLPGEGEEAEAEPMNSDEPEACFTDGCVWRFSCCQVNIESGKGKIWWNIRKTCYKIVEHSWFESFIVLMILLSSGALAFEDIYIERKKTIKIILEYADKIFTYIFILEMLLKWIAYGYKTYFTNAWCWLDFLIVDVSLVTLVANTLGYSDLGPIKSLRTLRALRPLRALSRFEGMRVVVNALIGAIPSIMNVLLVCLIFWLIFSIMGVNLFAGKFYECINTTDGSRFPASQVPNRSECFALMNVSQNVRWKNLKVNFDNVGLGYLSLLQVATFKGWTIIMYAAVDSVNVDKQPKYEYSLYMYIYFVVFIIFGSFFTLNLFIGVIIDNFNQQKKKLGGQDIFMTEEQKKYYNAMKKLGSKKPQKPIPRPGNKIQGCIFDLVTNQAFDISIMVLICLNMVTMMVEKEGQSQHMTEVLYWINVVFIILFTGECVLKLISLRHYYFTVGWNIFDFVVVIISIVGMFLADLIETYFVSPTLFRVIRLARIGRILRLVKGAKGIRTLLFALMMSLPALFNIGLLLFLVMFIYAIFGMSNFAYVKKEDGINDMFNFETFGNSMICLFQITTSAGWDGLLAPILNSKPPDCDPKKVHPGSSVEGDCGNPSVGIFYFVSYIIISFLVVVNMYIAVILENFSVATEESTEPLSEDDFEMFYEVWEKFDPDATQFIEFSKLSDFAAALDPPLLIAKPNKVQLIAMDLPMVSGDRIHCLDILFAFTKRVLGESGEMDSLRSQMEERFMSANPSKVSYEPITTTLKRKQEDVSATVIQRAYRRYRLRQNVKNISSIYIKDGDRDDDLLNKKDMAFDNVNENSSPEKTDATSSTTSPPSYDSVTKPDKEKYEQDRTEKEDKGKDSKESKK

| SMILES | IC50 [nM] |
| --- | --- |
| Cc1ccc(OCc2ccc(C(=O)NS(C)(=O)=O)cc2F)cc1-c1ccc(OCC2CC2)nc1 | < 500 |
| Cc1c(OCC2CC2)ccnc1-c1cc(F)cc(OCc2ccc(C(=O)NS(C)(=O)=O)cc2)c1 | < 500 |
| CS(=O)(=O)NC(=O)c1ccc(COc2cccc(-c3ccc(OCC4CC4)nc3)c2)cc1F | < 500 |
| CC(C)(C)OC(=O)N1CCC(COc2ccc(-c3cccc(OCc4ccc(C(=O)NS(C)(=O)=O)cc4)c3)cn2)CC1 | < 500 |
| CS(=O)(=O)NC(=O)c1ccc(COc2cccc(-c3ncc(OCC4CC4)cc3F)c2)c(F)c1 | < 500 |
| CS(=O)(=O)NC(=O)c1ccc(COc2cc(F)cc(-c3ccc(OCC4CC4)nc3)c2)c(F)c1 | < 500 |
| Cc1nc(OCC2CC2)ccc1-c1cccc(OCc2ccc(C(=O)NS(C)(=O)=O)cc2F)c1 | < 500 |
| CS(=O)(=O)NC(=O)c1ccc(COc2cccc(-c3cnc(OCC4CCC4)c(CO)c3)c2)cc1 | < 500 |
| CS(=O)(=O)NC(=O)c1ccc(COc2ccc(F)c(-c3cccc(OCC4CC4)n3)c2)c(F)c1 | < 500 |
| CS(=O)(=O)NC(=O)c1ccc(COc2cccc(-c3ccc(OCC4CCOCC4)nc3)c2)cc1 | < 500 |
| CS(=O)(=O)NC(=O)c1cc(F)c(COc2cccc(-c3ccc(OCC4CC4)nc3)c2)c(F)c1 | < 500 |
| CS(=O)(=O)NC(=O)c1ccc(COc2cccc(-c3cncc(OCC4CC4)n3)c2)c(F)c1 | < 500 |
| CS(=O)(=O)NC(=O)c1ccc(COc2cc(F)cc(-c3ccc(OCC4CCOC4)nc3)c2)cc1 (stereo not drawn) | < 500 |
| CS(=O)(=O)NC(=O)c1ccc(COc2ccc(F)c(-c3cnc(OCC4CC4)cn3)c2)c(F)c1 | < 500 |
| O=C(NS(=O)(=O)CC1CC1)c1ccc(COc2cc(F)cc(-c3ccc(OCC4CC4)nc3)c2)cc1 | < 500 |
| CS(=O)(=O)NC(=O)c1ccc(COc2cc(F)cc(-c3ccc(OCC4CC4)cn3)c2)cc1 | < 500 |
| Cc1cc(OCC2CCC2)cnc1-c1cc(F)cc(OCc2ccc(C(=O)NS(C)(=O)=O)cc2)c1 | < 500 |
| CS(=O)(=O)NC(=O)c1ccc(COc2cc(F)cc(-c3cccc(OCC4CC4)n3)c2)cc1 | < 500 |
| COCCOc1cc(OCC2CC2)cc(-c2cc(F)cc(OCc3ccc(C(=O)NS(C)(=O)=O)cc3F)c2)c1 | < 500 |
| CS(=O)(=O)NC(=O)c1ccc(COc2cc(F)cc(-c3cnc(OCC4CC4)c(Cl)c3)c2)c(F)c1 | < 500 |
| O=C(NS(=O)(=O)C1CC1)c1ccc(COc2ccc(F)c(-c3ccc(OCC4CC4)nc3)c2)c(F)c1 | < 500 |

| SMILES | IC50 [nM] |
| --- | --- |
| CS(=O)(=O)NC(=O)c1ccc(COc2cc(F)cc(-c3ncc(OCC4CC4)cc3F)c2)cc1 | < 500 |
| CCS(=O)(=O)NC(=O)c1ccc(COc2cc(F)cc(-c3ccc(OCC4CC4)nc3)c2)cc1 | < 500 |
| CS(=O)(=O)NC(=O)c1ccc(COc2cc(-c3ccc(OCC4CC4)nc3)cc(C3CC3)c2)cc1 | < 500 |
| CS(=O)(=O)NC(=O)c1ccc(COc2cc(F)cc(-c3ccnc(OCC4CC4)c3)c2)cc1 | < 500 |
| CS(=O)(=O)NC(=O)c1ccc(COc2cccc(-c3ccc(OCC4CC4)nc3)c2)c(Cl)c1 | < 500 |
| CS(=O)(=O)NC(=O)c1ccc(COc2cc(F)cc(-c3ccc(OCC4CC4)nc3)c2)cc1 | < 500 |
| CS(=O)(=O)NC(=O)c1ccc(COc2cccc(-c3ccc(OCC4CC4)cc3)c2)cc1 | < 500 |
| O=C(NS(=O)(=O)C1CC1)c1ccc(COc2ccc(F)c(-c3ccc(OCC4CC4)nc3)c2)cc1 | < 500 |
| CS(=O)(=O)NC(=O)c1ccc(COc2cccc(-c3cncc(OCC4CC4)n3)c2)cc1 | < 500 |
| CS(=O)(=O)NC(=O)c1ccc(COc2cc(F)cc(-c3cnc(OCC4CCC4)c(CO)c3)c2)cc1 | < 500 |
| O=C(NS(=O)(=O)C1CC1)c1cc(Cl)c(COc2cccc(-c3ccc(OCC4CC4)nc3)c2)cc1F | < 500 |
| CS(=O)(=O)NC(=O)c1ccc(COc2cccc(-c3ccc(OCC4CCC(F)(F)CC4)nc3)c2)cc1 | < 500 |
| N#Cc1cc(C(=O)NS(=O)(=O)C2CC2)ccc1COc1cccc(-c2ccc(OCC3CC3)nc2)c1 | < 500 |
| Cc1cc(OCc2ccc(C(=O)NS(C)(=O)=O)cc2F)cc(-c2ccc(OCC3CC3)nc2)c1 | < 500 |
| CS(=O)(=O)NC(=O)c1ccc(COc2cccc(-c3cncc(OCC4CC4)c3)c2)c(F)c1 | < 500 |
| O=C(NS(=O)(=O)C1CC1)c1ccc(COc2cc(F)cc(-c3ccc(OCC4CC4)nc3)c2)c(F)c1 | < 500 |
| Cc1nc(OCC2CC2)ccc1-c1cccc(OCc2ccc(C(=O)NS(C)(=O)=O)cc2)c1 | < 500 |
| CC(C)S(=O)(=O)NC(=O)c1ccc(COc2cccc(-c3ccc(OCC4CC4)nc3)c2)c(F)c1 | < 500 |
| CS(=O)(=O)NC(=O)c1ccc(COc2cccc(-c3ncc(OCC4CC4)cc3F)c2)cc1 | < 500 |
| CN(C)C(=O)c1cc(-c2cccc(OCc3ccc(C(=O)NS(C)(=O)=O)cc3F)c2)ccc1OCC1CC1 | < 500 |
| CS(=O)(=O)NC(=O)c1ccc(COc2cccc(-c3ccc(OCC4CC4)nc3)c2F)cc1 | < 500 |

| SMILES | IC50 [nM] |
| --- | --- |
| CS(=O)(=O)NC(=O)c1ccc(COc2cccc(-c3ccc(OCC4CCOC4)nc3)c2)c(F)c1 (stereo not drawn) | < 500 |
| CS(=O)(=O)NC(=O)c1cc(Cl)c(COc2cccc(-c3ccc(OCC4CC4)nc3)c2)cc1F | < 500 |
| Cc1cc(OCC2CC2)cnc1-c1cccc(OCc2ccc(C(=O)NS(C)(=O)=O)cc2F)c1 | < 500 |
| O=C(NS(=O)(=O)C(F)(F)F)c1ccc(COc2cc(F)cc(-c3ccc(OCC4CC4)nc3)c2)cc1 | < 500 |
| CNC(=O)c1cc(-c2cccc(OCc3ccc(C(=O)NS(C)(=O)=O)cc3F)c2)ccc1OCC1CC1 | < 500 |
| CS(=O)(=O)NC(=O)c1ccc(COc2cc(-c3ccc(OCC4CC4)nc3)ccc2F)cc1 | < 500 |
| CS(=O)(=O)NC(=O)c1ccc(COc2ccc(F)c(-c3ccc(OCC4CC4)nc3)c2)c(F)c1 | < 500 |
| CS(=O)(=O)NC(=O)c1ccc(COc2cccc(-c3ccc(OCC4CCC4)nc3)c2)cc1 | < 500 |
| Cc1c(OCC2CC2)ncnc1-c1cc(F)cc(OCc2ccc(C(=O)NS(C)(=O)=O)cc2)c1 | < 500 |
| Cc1cc(OCC2CCC2)cnc1-c1cccc(OCc2ccc(C(=O)NS(C)(=O)=O)cc2F)c1 | < 500 |
| O=C(NS(=O)(=O)C1CC1)c1ccc(COc2cccc(-c3ccc(OCC4CC4)nc3)c2)cc1 | < 500 |
| Cn1cc(-c2cc(OCc3ccc(C(=O)NS(C)(=O)=O)cc3)cc(-c3ccc(OCC4CC4)nc3)c2)cn1 | < 500 |
| CS(=O)(=O)NC(=O)c1ccc(COc2ccc(F)c(-c3cnc(OCC4CC4)c(Cl)c3)c2)c(F)c1 | < 500 |
| CS(=O)(=O)NC(=O)c1cc(F)c(COc2cc(F)cc(-c3ccc(OCC4CC4)nc3)c2)cc1F | < 500 |
| CS(=O)(=O)NC(=O)c1ccc(COc2cccc(-c3cc(OCC4CC4)ccn3)c2)c(F)c1 | < 500 |
| CCS(=O)(=O)NC(=O)c1ccc(COc2cccc(-c3ccc(OCC4CC4)nc3)c2)c(F)c1 | < 500 |
| Cc1c(OCC2CC2)ncnc1-c1cccc(OCc2ccc(C(=O)NS(C)(=O)=O)cc2F)c1 | < 500 |
| O=C(NS(=O)(=O)c1nccs1)c1ccc(COc2cccc(-c3ccc(OCC4CC4)nc3)c2)c(F)c1 | < 500 |
| O=C(NS(=O)(=O)C1CC1)c1ccc(COc2cccc(-c3ncc(OCC4CC4)cn3)c2)cc1 | < 500 |
| CS(=O)(=O)NC(=O)c1ccc(COc2cccc(-c3cnc(OCC4CCC4)cn3)c2)c(F)c1 | < 500 |
| CS(=O)(=O)NC(=O)c1ccc(COc2cccc(-c3cnc(OCC4CC4)c(Cl)c3)c2)c(F)c1 | < 500 |
